Experiment: xn = mol fraction of the nth substance listed

Oc1ccc2ccccc2c1 + CCO
viscosity [mPa·s], 101 kPa
Conditions	x1 = 0.03	x1 = 0.06	x1 = 0.09	x1 = 0.12	x1 = 0.15
293.15 K	1.428	1.684	1.969	2.28	2.641
303.15 K	1.162	1.351	1.588	1.836	2.093
313.15 K	0.975	1.125	1.305	1.487	1.669
323.15 K	0.801	0.92	1.063	1.217	1.374

CCNCC + CCCCCO
viscosity [mPa·s], 100 kPa
Conditions	x1 = 0.0806	x1 = 0.1601	x1 = 0.236	x1 = 0.3486	x1 = 0.4399	x1 = 0.5596	x1 = 0.6501	x1 = 0.7397	x1 = 0.8494	x1 = 0.9401
293.15 K	3.45	2.94	2.51	1.92	1.52	1.09	0.833	0.645	0.476	0.373
303.15 K	2.61	2.22	1.87	1.43	1.12	0.79	0.618	0.496	0.386	0.323
313.15 K	2	1.7	1.43	1.09	0.847	0.594	0.47	0.38	0.317	0.28
323.15 K	1.54	1.31	1.09	0.83	0.64	0.45	0.357	0.3	0.261	0.245

Reference: the CheMixHub viscosity set
